Results taken from PubChem BioAssay (NCI).
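Five concentrations, 48 hours, 96-well plates. GI50 = concentration required for 50% inhibition of growth. TGI is the concentration that stops growth completely.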

Tests used:
Test in all cases: DTP human tumour cell line panel, 48 h
[1] = test system: MCF7 breast
[2] = test system: PC-3 prostate
[3] = test system: MDA-N
[4] = test system: LXFL 529 NSCLC
[5] = test system: RXF-631 renal

With `O=C(O)c1cn(C2CC2)c2cc(N3CCN(C(=O)Nc4nc(-c5ccccc5)cs4)CC3)c(F)cc2c1=O` the GI50 [1] was 1.72 µM, the TGI [1] was > 100 µM and the GI50 [2] was 1.88 µM. For the same molecule, the TGI [2] was > 100 µM.

In the case of `O=C(O)C1CCCCC1c1c2ccc(=O)c(O)c-2oc2c(O)c(O)ccc12` (centres undefined), the TGI [1] is reported as 37.5 µM, the TGI [3] is reported as 44.9 µM and the TGI [2] is reported as > 100 µM.

For `COc1ccc2c(c1)CC[C@@H]1[C@@H]2CC[C@]2(C)[C@@H](NC(=O)/C=C/c3ccc(O)c(O)c3)CC[C@@H]12`, the GI50 [1] was 5.24 µM, the TGI [1] was > 100 µM and the GI50 [2] was 2.17 µM. For the same molecule, the TGI [2] was 12.5 µM.

In the case of `Cc1ccc(-c2c3c(nn2-c2ccc(S(N)(=O)=O)cc2)-c2ccccc2C3)cc1`, the GI50 [1] is reported as 30.3 µM, the TGI [1] is reported as > 100 µM and the GI50 [2] is reported as 16.1 µM. It also gave a TGI [2] of 42.6 µM.

Molecule `CC(=O)NC1C(OCc2ccccc2)OC(CO)C(O)C1OC(C)C(=O)N[C@@H](C)C(=O)N[C@H](CCC(=O)OCCNc1c2ccccc2nc2cccc([N+](=O)[O-])c12)C(N)=O` (some centres undefined) has a TGI [4] of 0.00267 µM.

`CCCCC(C)C(OC(=O)CC(CC(=O)O)C(=O)O)C(CC(C)CC(O)CCCCC(O)CC(O)C(C)N)OC(=O)CC(CC(=O)O)C(=O)O` (centres undefined) was tested, and the TGI [4] was > 100 µM and the TGI [5] was > 100 µM.

For `ON(Cc1ccccc1)C(=S)c1ccccc1`, the TGI [4] was > 100 µM, the TGI [1] was > 100 µM and the TGI [3] was > 100 µM. For the same molecule, the TGI [2] was > 100 µM and the TGI [5] was > 100 µM.

With `COc1ccc(C(c2ccc(OCCN(C)C)cc2)c2cc3ccccc3c3ccccc23)cc1` (centres undefined) the GI50 [1] was 1.81 µM, the TGI [1] was 3.61 µM and the GI50 [2] was 1.76 µM. For the same molecule, the TGI [2] was 3.5 µM.

With `CCCCCCNC(=O)Oc1ccc(/C(=C(/C)Cc2ccc(OC)cc2)c2ccc(OCCCN(C)C)cc2)cc1` the GI50 [1] was 1.12 µM, the TGI [1] was 17.1 µM and the GI50 [2] was 14.6 µM. For the same molecule, the TGI [2] was 28.2 µM.

With `COC(=O)C1=C(c2ccc(OC)c(OC)c2)OC(c2cc(OC)c(OC)c(OC)c2)C1` (centres undefined) the TGI [4] was > 100 µM and the TGI [5] was > 100 µM.

For `Nc1c(O)cc(N=C2C(=O)C=CC=C2C(=O)O)c(O)c1C(=O)O`, the TGI [4] was > 100 µM and the TGI [5] was > 100 µM.

`CN(Cc1cccc(F)c1)c1ccc(CO)c(Cl)c1` gave a GI50 [1] of 1.03 µM, a TGI [1] of 26.3 µM and a GI50 [2] of 23.7 µM. The TGI [2] was 98.8 µM.

With `CS(=O)(=O)NNS(=O)(=O)c1ccccc1` the TGI [4] was > 100 µM.

For `O=C(CC1(O)C(=O)Nc2ccc(Br)cc21)c1ccc(Cl)cc1Cl` (centres undefined), the TGI [4] was > 100 µM and the TGI [5] was > 100 µM.

`S=c1nc(COc2ccc(Cl)cc2Cl)[nH][nH]1` was tested, and the TGI [4] was > 100 µM.

With `CCN(CC)c1ccc(N=Nc2ccc([N+](=O)[O-])cc2OC(=O)/C=C/c2ccccc2)c(OC(=O)/C=C/c2ccccc2)c1` the TGI [4] was > 100 µM and the TGI [5] was > 100 µM.

`O=C(CN1CCN(c2cc3c(cc2F)c(=O)c(C(=O)O)cn3C2CC2)CC1)Nc1nc(-c2ccc(Cl)cc2)cs1` showed a GI50 [1] of 3.06 µM, a TGI [1] of 36.1 µM and a GI50 [2] of 3.36 µM. For the same molecule, the TGI [2] was 29.9 µM.

For `O=[N+]([O-])c1ccc(Oc2nc(Nc3ccc(O[C@H]4CO[C@H]5[C@@H]4OC[C@@H]5O)c(Cl)c3)ncc2F)c(Cl)c1`, the GI50 [1] was 1.66 µM, the TGI [1] was 4.16 µM and the GI50 [2] was 1.66 µM. It also gave a TGI [2] of 7.04 µM.

With `CCOc1ccc2c(c1)[n+]([O-])c(-c1ccc(Br)cc1)c(N)[n+]2[O-]` the TGI [4] was > 100 µM and the TGI [5] was > 100 µM.

`CC(=O)c1c(CN(C)c2ccccc2)n([O-])c2ccccc2[n+]1=O` was tested, and the GI50 [1] was 15 µM, the TGI [1] was 63 µM and the GI50 [2] was 11.7 µM. It also gave a TGI [2] of 44.3 µM.

For `O=C1NC(=O)C(=Nc2cccc3c(=O)[nH][nH]c(=O)c23)C(c2nc3ccccc3s2)C1=O` (centres undefined), the TGI [4] was > 100 µM and the TGI [5] was > 100 µM.

`O=[N+]([O-])c1ccc(C2CC(c3ccccc3Cl)=Nc3ccccc3S2=O)cc1` (centres undefined) was tested, and the TGI [4] was 3.54 µM, the TGI [1] was 7.92 µM and the TGI [3] was 21.8 µM. It also gave a TGI [2] of 17.3 µM and a TGI [5] of 21.5 µM.

For `CCN1C(=O)CCCc2c1ccc(Nc1ncc(Cl)c(NC3[C@@H](C(N)=O)[C@@H]4C=C[C@H]3C4)n1)c2OC` (some centres undefined), the GI50 [1] was 0.618 µM, the TGI [1] was 6.7 µM and the GI50 [2] was 1.49 µM. It also gave a TGI [2] of 18 µM.

Work on `Cn1nc(-c2ccc(Cl)cc2)nc2c(=O)n(C)c(=O)nc1-2` yielded a GI50 [1] of 0.594 µM, a TGI [1] of 1.57 µM and a GI50 [2] of 1.19 µM. It also gave a TGI [2] of 7.9 µM.

For `COC(=O)C(=CNC(N)=O)C(=O)OC`, the TGI [1] was > 100 µM, the TGI [3] was > 100 µM and the TGI [2] was > 100 µM.

`O=C(CCC(=O)Nc1ccc(Cl)c(Cl)c1)CC(=O)c1ccc(F)cc1` was tested, and the TGI [4] was > 100 µM and the TGI [5] was > 100 µM.

In the case of `CN(C)C(=Nc1nc(=[N+](C)C)ss1)N(C)C`, the TGI [4] is reported as > 100 µM and the TGI [5] is reported as > 100 µM.

`CN=C(NC(=S)N(C)C)N(C)C` was tested, and the TGI [4] was > 100 µM and the TGI [5] was > 100 µM.

Work on `CCCCCCCCCCCCCCCCNCCCN(C)CCCN` yielded a TGI [4] of 33.2 µM.

In the case of `C#CC[N+](C)(CC#C)CC#C`, the TGI [4] is reported as > 100 µM and the TGI [5] is reported as > 100 µM.

Molecule `FC(F)(F)c1ccc(-c2cnc(-n3cc(COCCN4CCCCC4)nn3)nc2NC2CCCCCC2)cc1` has a GI50 [1] of 3.21 µM, a TGI [1] of 7.4 µM and a GI50 [2] of 2.93 µM. The TGI [2] was 6.18 µM.

`C=C1C(=O)O[C@H]2[C@H]1CC/C(COC(=O)CCSCCC(=O)OC/C1=C/CC[C@@]3(C)O[C@H]3[C@H]3OC(=O)C(=C)[C@@H]3CC1)=C\CC[C@@]1(C)O[C@@H]21` gave a GI50 [1] of 0.418 µM, a TGI [1] of 1.86 µM and a GI50 [2] of 1.82 µM. It also gave a TGI [2] of 4.8 µM.

For `CCOC(=O)c1c(C)n(Cc2ccccc2)c2c1cc(O)c1[nH]c(Cc3ccccc3)nc12`, the GI50 [1] was 7.4 µM, the TGI [1] was > 53.1 µM and the GI50 [2] was 7.88 µM. For the same molecule, the TGI [2] was > 100 µM.

For `COc1cc(OC)c2nccc(NCCCN(C)C)c2c1[N+](=O)[O-]`, the TGI [1] was > 100 µM, the TGI [3] was > 100 µM and the TGI [2] was > 100 µM.

`COc1cc2c(cc1OC)C(Sc1ccc(SC)cc1)c1c(nc(N)c(C#N)c1N)O2` (centres undefined) gave a GI50 [1] of 1.1 µM, a TGI [1] of 3.54 µM and a GI50 [2] of 1.63 µM. For the same molecule, the TGI [2] was 3.06 µM.

`CCC(c1ccc(OC)cc1)C(CC)c1ccc(O)c(CN2CCN(C)CC2)c1` (centres undefined) gave a GI50 [1] of 2.42 µM, a TGI [1] of 5.09 µM and a GI50 [2] of 6.73 µM. For the same molecule, the TGI [2] was 21.2 µM.
